Measured values reported in PubChem BioAssay AID742 (SRMLSC, 2007).
The source made the active and inactive calls. How the calls were made is not given here.

Tests used:
[1] = test system: human cells, Her2 expression AlphaScreen; CTG viability; experiment: inhibitors of Her2 kinase expression, dose response, cell-based, AlphaScreen, CellTiter-Glo viability (AID 742); conditions: viability, CellTiter-Glo
[2] = as above; conditions: human cells, Her2 expression AlphaScreen; CTG viability; at 9.62 µM (top of the series)

Row | SMILES | EC50 [1] | Her2 inhibition [2]
1 | CCCn1c(SCC(=O)Nc2cccc(C)n2)nnc1-c1ccco1 | > 9.62 µM | -2.69% (inactive)
2 | CS(=O)(=O)c1ncc(Cl)c(C(=O)Nc2ccc(N3CCOCC3)cc2)n1 | > 9.62 µM | 19.8% (inactive)
3 | Cc1onc(-c2ccccc2)c1C(=O)n1nnc2ccccc21 | > 9.62 µM | -24.8% (inactive)
4 | CC1CC(C)(C)Nc2ccc(OC(=O)c3ccco3)cc21 (centres undefined) | > 9.62 µM | -5.22% (inactive)
5 | O=C(CCN1CCC(c2ccccc2)C1)c1cccs1 (centres undefined) | > 9.62 µM | -8.45% (inactive)
6 | C=CCSC1=N/C(=C\C=C\c2ccco2)C(=O)S1 | > 9.62 µM | 28.4% (inactive)
7 | COc1ccc(/C=C/C(O)=C2/C(=O)N(C)C3(C)CC2c2ccccc2O3)cc1 (centres undefined) | > 9.62 µM | 23.7% (inactive)
8 | CCN(CC(=O)NCc1cccs1)c1nnnn1-c1ccccc1 | > 9.62 µM | -22.3% (inactive)
9 | C[C@H]1CCC[C@H](O)CCCCCc2cc(O)cc(O)c2C(=O)O1 | > 9.62 µM | 3.17% (inactive)
10 | CCOC(=O)c1c(C)[nH]c(C(=O)OC/C(O)=C(\C#N)c2nc3ccccc3[nH]2)c1C | > 9.62 µM | 16.6% (inactive)
11 | C=C(C)COc1ccc(-c2n[nH]c(C)c2Oc2ccccc2OC)c(O)c1 | > 9.62 µM | -8.71% (inactive)
12 | Cn1nnnc1SCC(=O)Nc1c(Cl)cccc1Cl | > 9.62 µM | -18.1% (inactive)
13 | O=C(Nc1ccc2c(c1)OCO2)c1cnn2cccnc12 | > 9.62 µM | -5.1% (inactive)
14 | O=C(Nc1ccccc1NC(=O)NC1CCCCC1)NC1CCCCC1 | > 9.62 µM | -1.72% (inactive)
15 | O=C(NCC(=O)N(CCc1ccccc1)C(C(=O)NC1CCCC1)c1cccnc1)c1ccco1 (centres undefined) | > 9.62 µM | -12.6% (inactive)
16 | CCc1ccc(C2CC(=O)N3CN(c4ccccc4)CSC3=C2C#N)cc1 (centres undefined) | > 9.62 µM | 21.4% (inactive)

Row | SMILES | EC50 [1] | Her2 inhibition [2]
17 | Clc1ccc(-n2nnnc2Sc2ncnc3sccc23)cc1 | > 9.62 µM | -1.39% (inactive)
18 | O=C(CN1CCC(c2nc3ccccc3s2)CC1)NCc1cccs1 | > 9.62 µM | -41.9% (inactive)
19 | Cc1ccc2[nH]cc(C(=O)CN3CCN(c4ccccn4)CC3)c2c1 | > 9.62 µM | -23.7% (inactive)
20 | CC1(C)CC(=O)NC=C(c2ccccc2)C1 | > 9.62 µM | 0.71% (inactive)
21 | O=c1[nH]c(Nc2nc3ccccc3o2)nc2c1CCCC2 | > 9.62 µM | -16.5% (inactive)
22 | CCCCCCCCNC(C)C(O)c1ccc(SC(C)C)cc1 (centres undefined) | > 9.62 µM | -16.3% (inactive)
23 | O=C(O)c1ccc2c3c(ncnc13)-c1ccccc1C2=O | > 9.62 µM | -3.54% (inactive)
24 | O=C1C(C2=C(O)c3ccccc3C2=O)=Nc2ccccc21 | < 0.024 µM | -1.36% (inactive)
25 | Cn1nc(C(=O)Nc2c(-c3ccccc3)nc3sccn23)c2ccccc2c1=O | > 9.62 µM | -13.2% (inactive)
26 | CC(=N\O)/C(CN(C)C)=N/O | > 9.62 µM | -15.9% (inactive)
27 | C=C(C)COc1ccc(-c2n[nH]c(C)c2-c2ccccc2)c(O)c1 | > 9.62 µM | -3.91% (inactive)
28 | COc1ccc(CSc2nnnn2Cc2ccccc2)cc1OC | > 9.62 µM | -31.4% (inactive)
29 | COc1ccc(-n2nnc3c(SCC(=O)Nc4ccc5c(c4)OCCO5)ncnc32)cc1 | > 9.62 µM | -9.58% (inactive)
30 | COc1cccc(-c2nnn(CC(=O)O)n2)c1 | > 9.62 µM | -1.29% (inactive)
31 | CC(O)CCc1nc2ccc(C(=O)O)cc2[nH]1 (centres undefined) | > 9.62 µM | -23.7% (inactive)
32 | Cc1c(NC(=O)c2cccc(F)c2)c(=O)n(-c2ccccc2)n1C | > 9.62 µM | 10.6% (inactive)
